Measured values reported in US20250163002A1, “FUSED QUINONOXIME IMIDAZOLE, ONIUM DERIVATIVES THEREOF, PREPARATION AND USE THEREOF” (SHANGHAI JIAO TONG UNIVERSITY, priority 2022, published 2025).

Experiments:
[1] = tested on: Adenovirus; experiment: Antiviral activity, plaque test in 293A cells; assay type: cell-based; conditions: adenovirus in 293A cells; for non-CPE blank plaques observed: observation by day
Experimental: Experimental method: 4.59 mg of the compound 125 were weighed and put to a 15 mL centrifugal tube with the addition of 10 mL of sterile water, and dissolved via vortex oscillation until there was no obvious yellow particle, then subpackaged and stored at −20° C., 200 μL/piece (concentration: 1 mM); 2.79 mg Cidofovir (molecular weight: 279) were weighed and added to the 15 mL centrifugal tube, dissolved with the addition of 10 mL sterile water, then subpackaged and stored at −20° C., 200 μL/piece (concentration: 1 mM).
Plaque test: • 1. 293A cells were paved into a 24-well plate with 150,000 cells per well, and cultured at 37° C. for 12-24 h, then used for test after growing to 90%. • 2. 2% low-melting point agarose gel was melted and put to a 56° C. water bath kettle for further use. • 3. Adenovirus having a titer of 10^9 TCID^50/mL was diluted by 10^5 folds; medium in the 24-well plate was removed, and 200 μL of adenoviral diluent was added per well and incubated in a 37° C. 5% CO2 incubator, shaken once every 30 min, and incubated for 1 h in total. • 4. The drug compound 125 to be tested and Cidofovir were double diluted with 2×MEM (16 μL compound 125 was added to 8 mL of 2×MEM, oscillated and mixed well, then 4 mL mixed solution was taken and added to fresh 4 mL of 2×MEM and mixed well, and 5 dilutions were conducted, being 2 μM, 1 μM, 500 nM, 250 nM, and 125 nM, respectively; the maximum concentration of the compound 125 was 1 μM. Similarly, 400 μL Cidofovir was added to 7.6 mL of 2×MEM, oscillated and mixed well, then 4 mL mixed solution was taken and added to fresh 4 mL of 2×MEM and mixed well, and 5 dilutions were conducted, being 50 μM, 25 μM, 12.5 μM, 6.25 μM, and 3.125 μM, respectively); the diluted solution was put at 37° C. for further use. • 4. The viral solution was discarded, and agarose gel preheated at 56° C. was added to 2×MEM by the same volume and mixed well, and then 2 mL of mixed solution was added per well, and incubated at room temperature for 30 min (gel). • 5. […]

[2] = tested on: A549; experiment: In vitro inhibition test for cancer cell proliferation (MTT), A549; assay type: cell-based; conditions: 24 h or 48 h after addition, unit inferred
[3] = tested on: HeLa; experiment: In vitro inhibition test for cancer cell proliferation (MTT), HeLa; assay type: cell-based; conditions: 24 h or 48 h after addition, unit inferred
[4] = tested on: MCF-7; experiment: In vitro inhibition test for cancer cell proliferation (MTT), MCF-7; assay type: cell-based; conditions: 24 h or 48 h after addition, unit inferred
[5] = tested on: L929; experiment: In vitro cell proliferation inhibition test (MTT), L929; assay type: cell-based; conditions: 24 h or 48 h after addition, unit inferred
[6] = tested on: non-small cell lung cancer cell H460; experiment: In vitro proliferation inhibition, H460; assay type: cell-based; conditions: unit inferred
Experimental: (§1) Test method: pancreatic cancer cells CFPAC-1 were cultured in a Dalbeco-improved Eagle medium with the addition of 10% FBS and 5% double-antibody. CFPAC-1 cancer cells were inoculated into a 96-well plate for incubation for 24 h; in the following day, test compounds having various concentrations of (100, 20, 10, 1, 0.1, 0.01, and 0.001 μM) and positive control agents were added per well; corresponding volume of fresh medium was added to blank control. After addition for 24 h or 48 h, cell proliferation was evaluated by chromogenic reaction of MTT formazan.
(§2) In addition, compounds (I), (II), (III), and (IV) of the present invention have good inhibition activity against the proliferation of other cancer cells, including non-small cell lung cancer cell (H460, H1299), liver tumor cell (HepG2), rectal cancer cell (HT29), leukemia cell (CCRF-CEM), prostate cancer cell (PC-3), ovarian carcinoma cell (SKOV-3), melanoma cell (A375), myeloma cell (RPMI-8226), esophageal carcinoma cell (TE-1), pancreatic cancer cell (CFPAC-1, PANC-1, SW1990, ASPC-1, and BXPC-3), bladder cancer cell (5637), and gastric cancer cell (KATO-III).

[7] = tested on: non-small cell lung cancer cell H1299; experiment: In vitro proliferation inhibition, H1299; assay type: cell-based; conditions: unit inferred
Experimental: as §1, §2

[8] = tested on: liver tumor cell HepG2; experiment: In vitro proliferation inhibition, HepG2; assay type: cell-based; conditions: unit inferred
Experimental: as §1, §2

[9] = tested on: rectal cancer cell HT29; experiment: In vitro proliferation inhibition, HT29; assay type: cell-based; conditions: unit inferred
Experimental: as §1, §2

[10] = tested on: leukemia cell CCRF-CEM; experiment: In vitro proliferation inhibition, CCRF-CEM; assay type: cell-based; conditions: unit inferred
Experimental: as §1, §2

[11] = tested on: prostate cancer cell PC-3; experiment: In vitro proliferation inhibition, PC-3; assay type: cell-based; conditions: unit inferred
Experimental: as §1, §2

[12] = tested on: ovarian carcinoma cell SKOV-3; experiment: In vitro proliferation inhibition, SKOV-3; assay type: cell-based; conditions: unit inferred
Experimental: as §1, §2

[13] = tested on: melanoma cell A375; experiment: In vitro proliferation inhibition, A375; assay type: cell-based; conditions: unit inferred
Experimental: as §1, §2

[14] = tested on: myeloma cell RPMI-8226; experiment: In vitro proliferation inhibition, RPMI-8226; assay type: cell-based; conditions: unit inferred
Experimental: as §1, §2

[15] = tested on: esophageal carcinoma cell TE-1; experiment: In vitro proliferation inhibition, TE-1; assay type: cell-based; conditions: unit inferred
Experimental: as §1, §2

[16] = tested on: pancreatic cancer cells CFPAC-1; experiment: In vitro proliferation inhibition, CFPAC-1; assay type: cell-based; conditions: unit inferred
Experimental: as §1, §2

[17] = tested on: pancreatic cancer cell PANC-1; experiment: In vitro proliferation inhibition, PANC-1; assay type: cell-based; conditions: unit inferred
Experimental: as §1, §2

[18] = tested on: pancreatic cancer cell SW1990; experiment: In vitro proliferation inhibition, SW1990; assay type: cell-based; conditions: unit inferred
Experimental: as §1, §2

[19] = tested on: pancreatic cancer cell ASPC-1; experiment: In vitro proliferation inhibition, ASPC-1; assay type: cell-based; conditions: unit inferred
Experimental: as §1, §2

[20] = tested on: pancreatic cancer cell BXPC-3; experiment: In vitro proliferation inhibition, BXPC-3; assay type: cell-based; conditions: unit inferred
Experimental: as §1, §2

[21] = tested on: bladder cancer cell 5637; experiment: In vitro proliferation inhibition, 5637; assay type: cell-based; conditions: unit inferred
Experimental: as §1, §2

[22] = tested on: gastric cancer cell KATO-III; experiment: In vitro proliferation inhibition, KATO-III; assay type: cell-based; conditions: unit inferred
Experimental: as §1, §2

[23] = tested on: CFPAC-1 pancreatic cancer cells; experiment: In vivo inhibition test of cancer cell proliferation, CFPAC-1 transplant; parameters: species or system Balb/c naked mouse; conditions: 7 mg/kg, once every other three days, 7 times; gross tumor volume
Experimental: Test method: 3×10^7 CFPAC-1 pancreatic cancer cells were transplanted to subcutaneous tissues of armpit of a Balb/c naked mouse; administration was conducted when the tumor grew to 50-100 mm^3, 100-200 mm^3, and greater than 200 mm^3; the mouse was administered once every other three days, 7 times in total, and 7 mg/kg each time. Normal saline was injected in the control group. Tumor length and diameter were measured by calipers and weight of the moue was weighed until the next day of the final administration. Gross tumor volume was calculated by the following equation:
gross tumor volume (mm^3)=½×[short diameter (mm)]^2×long diameter (mm)

[24] = Compound toxicity test, body weight changes; assay type: in vivo, balb/c mice; conditions: tail intravenous injection, 5 mg/kg every day for 7 consecutive days
Experimental: Test method: the compounds 121, 123, 124, 125, 128, 132, 137, 138, 139, 140, 143, 144, 145, 146, and 147 in the examples of the present invention were administered every day via tail intravenous injection at a dose of 5 mg/kg for 7 consecutive days, and then body weight changes of the balb/c mice were monitored.

Row | Compound | IC50 [2] | IC50 [3] | IC50 [4] | IC50 [5] | IC50 [6] | IC50 [7] | IC50 [8] | IC50 [9] | IC50 [10] | IC50 [11] | IC50 [12] | IC50 [13] | IC50 [14] | IC50 [15] | IC50 [16] | IC50 [17] | IC50 [18] | IC50 [19] | IC50 [20] | IC50 [21] | also measured
1 | Nc1ccn(C[C@@H](CO)OCP(=O)(O)O)c(=O)n1 [Cidofovir, reference compound] | – | – | – | – | – | – | – | – | – | – | – | – | – | – | – | – | – | – | – | – | non-CPE blank plaques observed [1]: 4 days later, lots of blank plaques formed by non-CPE could be observed
2 | Cn1c[n+](C)c2c1C(=O)c1ccccc1C2=NOCc1ccccc1.[I-] [Compound 125, (E) and (Z)-4-((benzyloxy)imino)-1,3-dimethyl-9-oxo-4,9-dihydro-1H-naphthol[2,3-d]imidazole-3-iodide] | 5 nM | 5.3 µM | 4.5 µM | 45.3 µM | 160 nM | 260 nM | 9 nM | 5.4 µM | 90 nM | 26.5 µM | 90 nM | 2.21 µM | 89 µM | 60 nM | 6 nM | 970 nM | 9 nM | 5 nM | 3 nM | 40 nM | IC50 [22]: 9 nM; proliferation inhibition activity / inhibition ratio [23]: 100%; effect on viral replication [1]: inhibiting effect on viral replication
3 | CC(C)ON=C1c2ccccc2C(=O)c2c1[n+](C)cn2C.[I-] [Compound 127, (E) and (Z)-4-(isopropoxyimino)-1,3-dimethyl-9-oxo-4,9-dihydro-1H-naphthol[2,3-d]imidazole-3-iodide] | 90 nM | 25.1 µM | 7.9 µM | 29.6 µM | – | – | – | – | – | – | – | – | – | – | – | – | – | – | – | – | non-CPE blank plaques observed [1]: 5 days later, non-CPE blank plaque also appeared in the low concentration group
4 | (E) and (Z)-4-(butoxyimino)-1,3-dimethyl-9-oxo-4,9-dihydro-1H-naphthol[2,3-d] [Compound 128] | 4 nM | 4.8 µM | 2.9 µM | 6.5 µM | 140 nM | 170 nM | 20 nM | 9.8 µM | 530 nM | 8.8 µM | 80 nM | 1.66 µM | 78.9 µM | 9 nM | 8 nM | 100 nM | 9 nM | 8 nM | 6 nM | 10 nM | IC50 [22]: 9 nM; proliferation inhibition activity / inhibition ratio [23]: 100%
5 | CCON=C1c2ccccc2C(=O)c2c1[n+](C)cn2C.[I-] [Compound 124, (E) and (Z)-4-(ethoxylimino)-1,3-dimethyl-9-oxo-4,9-dihydro-1H-naphthol[2,3-d]imidazole-3-iodide] | 9 nM | 11.3 µM | 3.3 µM | 4.6 µM | 340 nM | 450 nM | 20 nM | 7.9 µM | 220 nM | 23.1 µM | 100 nM | 5.65 µM | 99.2 µM | 80 nM | 9 nM | 890 nM | 9 nM | 8 nM | 6 nM | 60 nM | IC50 [22]: 20 nM; proliferation inhibition activity / inhibition ratio [23]: 100%
6 | Nc1ccn([C@@H]2O[C@H](CO)[C@@H](O)C2(F)F)c(=O)n1 [gemcitabine] | – | – | – | – | – | – | – | – | – | – | – | – | – | – | – | – | – | – | – | – | condition and body weight changes of the mice [24]: obviously reduced weight and are dispirited
7 | CON=C1c2ccccc2C(=O)c2c1[n+](C)cn2C.[I-] [Compound 123, (E) and (Z)-4-(methoxylimino)-1,3-dimethyl-9-oxo-4,9-dihydro-1H-naphthol[2,3-d]imidazole-3-iodide] | 7 nM | 23 µM | 1.8 µM | 3.8 µM | 220 nM | 430 nM | 10 nM | 6.7 µM | 120 nM | 13.5 µM | 90 nM | 4.65 µM | 90.9 µM | 70 nM | 7 nM | 760 nM | 8 nM | 7 nM | 4 nM | 50 nM | IC50 [22]: 10 nM; proliferation inhibition activity / inhibition ratio [23]: 100%
